Data reported in paper PMC7355937, “Structure-Based Discovery of Dual-Target Hits for Acetylcholinesterase and the α7 Nicotinic Acetylcholine Receptors: In Silico Studies and In Vitro Confirmation” (Molecules, 2020).
Where “and” joins values, the source holds several entries; their conditions need not be identical. Equal values may be shown once. Read-outs that look alike come from different tables or passages of the source.

Assays:
[1] = biological target: T1, human recombinant AChE (Homo sapiens, UniProt P22303); assay: biochemical; settings: for AChE %Inhibition of supernatant (MeOH): poorly soluble compound, methanol supernatant tested, nominal 200 µM; for inhibition at 200 µM: compound soluble in MeOH
T1 construct: purchased Sigma-Aldrich Co. LLC C1682
Procedure: For five poorly soluble compounds, the methanol supernatants were tested. Ellman’s colorimetric analysis is based on the breakdown of acetylthiocholine (ATCI) by AChE to thiocholine and acetic acid. Ellman’s reagent in turn reacts with the thiol group of thiocholine resulting in a yellow color indicating the extent of enzymatic activity. […] In vitro AChE inhibitory activity was studied using the colorimetric method of Ellman using human recombinant AChE enzyme. To a 96-well microplate, test solutions were applied along with 1 mg/mL bovine serum albumin, 0.5 mM 5,5-dithiobis-(2-nitro-benzoic acid), and 0.5 mM acetylthiocholine iodide. […] Experiments were conducted in triplicate.
(§1) Data analysis was performed as reported previously. […] During analysis, traces were baseline subtracted and responses to individual applications quantified as peak-current amplitudes. Statistical calculations were performed using GraphPad Prism 7 (GraphPad Software, GraphPad, San Diego, CA, USA). Activation of the α7 nAChR was calculated as a percentage of Emax response to ACh. For evaluation of the inhibitory activity, the percentage of remaining peak-current amplitudes relative to that of the AChcontrol (EC20) application was calculated. AChE inhibition data were analyzed using GraphPad Prism 7. Absorption readings from the AChE inhibition assay were plotted versus time and linear regression was performed. […] Data were fitted with the slope set to 1 and remaining current amplitude at infinitely high compound concentrations set to 0.

[2] = biological target: T2, human α7 nAChR (Homo sapiens, UniProt P36544); assay: α7 nAChR direct activation (agonist test), two-electrode voltage-clamp electrophysiology in Xenopus oocytes; assay type: cell-based; settings: for activation at 200 µM: read-out: α7 nAChR %Activation
T2 construct: expressed in transfected cells; host or cells: Xenopus laevis oocytes (cRNA injection)
Procedure: (§2) Compounds were tested for direct activation of the α7 nAChR in a 0.2–200 µM concentration range. Compounds displaying less than 1% direct activation were further evaluated at 100 µM for their ability to alter currents evoked by 30 µM ACh.
(§3) Xenopus laevis oocytes were obtained as described previously, briefly, ovary lobes were removed by surgical incision, sliced into small pieces and defolliculated by collagenase treatment. […] Stage V and VI oocytes were injected with a total of ~25 ng of cRNA encoding human α7 nAChR with RIC3 (in 5:1 ratio), a protein enhancing the expression of the receptor. Injected oocytes were incubated for 3–5 days at 18 °C in a saline solution (96 mM NaCl, 2 mM KCl, 1 mM MgCl2, 1.8 mM CaCl2, 5 mM HEPES (hemisodium, pH 7.4)) supplemented with 2.5 mM sodium pyruvate, 0.5 mM theophylline, and 50 µM gentamycin.
(§4) Electrophysiological recordings from Xenopus laevis oocytes were performed using the two-electrode voltage-clamp technique as described previously. Briefly, oocytes were placed in a custom-built recording chamber and continuously perfused with a saline solution. The saline solution contained 96 mM NaCl, 2 mM KCl, 1 mM MgCl2, 1.8 mM CaCl2, 5 mM HEPES (hemisodium, pH 7.4). Pipettes were backfilled with 3 M KCl and open-pipette resistances ranged from 0.3 to 1.5 MΩ when submerged in the saline solution. Oocytes were voltage clamped at a holding potential of −60 mV using an Axon Geneclamp 500B amplifier (Molecular Devices, LLC, San Jose, CA, USA). Rapid solution exchange in the oocyte vicinity (order of a few seconds) was ensured by application through a 1.5 mm diameter capillary tube placed approximately 2 mm from the oocyte as described previously. The solution flow rate through the capillary was 2.0 mL/min. […] Thereafter, test compounds in increasing concentration were applied (25 s), the maximal tested concentration was 200 µM. A wash period of at least 2 min was kept between each application. […] In these experiments, 10 and 100 µM concentration of a test compound was co-applied with 30 µM ACh. Peak current amplitudes were normalized with respect to the amplitude of current elicited by 3 mM or 30 µM ACh for the agonist and antagonist test, respectively. All experiments were conducted at least in triplicate.
as §1

[3] = biological target: T2, human α7 nAChR; assay: α7 nAChR inhibition of ACh-evoked currents (antagonist test), two-electrode voltage-clamp electrophysiology in Xenopus oocytes; assay type: cell-based; settings: -60 mV
Procedure: as §2, §3, §4, §1

[4] = tested on: α7 nAChR; settings: cited from earlier work
[5] = 200 µM, normalized to 3 mM ACh response, -60 mV
[6] = 100 µM compound co-applied with 30 µM ACh, read-out: α7 nAChR %Inhibition
[7] = five to eight concentrations, read-out: AChE IC50

T2 sequence (P36544 23-502): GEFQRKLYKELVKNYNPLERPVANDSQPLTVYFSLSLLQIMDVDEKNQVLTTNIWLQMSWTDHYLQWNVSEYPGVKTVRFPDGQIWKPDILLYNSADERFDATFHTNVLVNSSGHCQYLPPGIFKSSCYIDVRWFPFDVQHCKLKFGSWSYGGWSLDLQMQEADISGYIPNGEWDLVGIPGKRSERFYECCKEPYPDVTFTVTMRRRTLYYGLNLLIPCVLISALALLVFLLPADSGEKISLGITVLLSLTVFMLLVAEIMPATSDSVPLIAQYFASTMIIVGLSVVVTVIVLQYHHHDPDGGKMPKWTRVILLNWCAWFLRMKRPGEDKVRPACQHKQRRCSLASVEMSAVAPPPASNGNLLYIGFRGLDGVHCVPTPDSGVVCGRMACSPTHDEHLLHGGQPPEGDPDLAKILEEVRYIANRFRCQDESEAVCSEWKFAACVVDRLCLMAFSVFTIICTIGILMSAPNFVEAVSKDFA
T1 sequence (P22303 32-614): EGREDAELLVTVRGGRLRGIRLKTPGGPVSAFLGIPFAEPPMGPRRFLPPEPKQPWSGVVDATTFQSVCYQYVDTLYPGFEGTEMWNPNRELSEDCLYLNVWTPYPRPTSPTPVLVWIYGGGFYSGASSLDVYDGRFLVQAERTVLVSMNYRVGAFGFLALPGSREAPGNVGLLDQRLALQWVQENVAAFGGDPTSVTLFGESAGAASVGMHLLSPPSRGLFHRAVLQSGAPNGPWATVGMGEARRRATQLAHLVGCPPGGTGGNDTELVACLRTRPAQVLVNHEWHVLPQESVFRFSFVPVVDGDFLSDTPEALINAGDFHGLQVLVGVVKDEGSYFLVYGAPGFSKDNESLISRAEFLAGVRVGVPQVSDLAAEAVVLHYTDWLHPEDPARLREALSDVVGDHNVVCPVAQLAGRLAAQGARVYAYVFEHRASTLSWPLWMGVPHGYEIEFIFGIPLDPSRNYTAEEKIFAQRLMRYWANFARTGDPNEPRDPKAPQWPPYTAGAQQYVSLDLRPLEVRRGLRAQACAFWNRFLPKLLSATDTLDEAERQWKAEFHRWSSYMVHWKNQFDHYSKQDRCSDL

With `O[C@@H]1c2ccc(-c3cccnc3)cc2OC[C@H]1N1CCCC1` [Compound 9] the “AChE %Inhibition of supernatant (MeOH)” value [1] was 45.9 ± 3.8%, the activation at 200 µM [2, 5] was 1% and the inhibition at 100 µM [3, 6] was 66.7%.
`O=C(Nc1cccc(CN2CCCCC2)c1)c1ccccc1F` [Compound 10] showed an inhibition at 200 µM [1] of 90.8%, an IC50 [1, 7] of 11.3 µM and an activation at 200 µM [2, 5] of 0.3%. It also gave an inhibition at 100 µM [3, 6] of 85%.
For `Cc1ccc2cc(NC(=O)NCCN3CCCC3)ccc2n1` [Ýmir-10 (15)], the inhibition at 200 µM [1] was 66.6%, the IC50 [1, 7] was 115 µM and the “α7 nAChR %Activation” value [2, 5] was 2.3% and 2.3 ± 0.4%. It also gave an activation at 200 µM [2] of 2.3 ± 0.4%.
In the case of `Cc1cccc(NC(=O)c2ccc(CN3CCCCCC3)cc2)c1C` [Compound 13], the inhibition at 200 µM [1] is reported as 82.5%, the IC50 [1, 7] is reported as 30.2 µM and the activation at 200 µM [2, 5] is reported as 0.7%. For the same compound, the inhibition at 100 µM [3, 6] was 68%.
For `O=c1[nH]c2ccccc2c(=O)n1-c1ccc(CN2CCCC2)cc1` [Compound 12], the “AChE %Inhibition of supernatant (MeOH)” value [1] was 63.7 ± 4.4%, the activation at 200 µM [2, 5] was 0.3% and the inhibition at 100 µM [3, 6] was 81.7%.
With `O=C(Nc1nc(CN2CCCCC2)cs1)c1cc(O)nc2ccccc12` [Ýmir-16 (21)] the inhibition at 200 µM [1] was 87.7%, the IC50 [1, 7] was 7.76 µM and the IC50 ([1]; read-out: AChE pIC50 ± SEM (converted)) was 7.94 µM. The activation at 200 µM [2, 5] was 0.3%, the “α7 nAChR %Inhibition” value ([3]; 100 µM compound co-applied with 30 µM ACh) was 97.3 ± 1% and the inhibition at 100 µM ([3]; read-out: α7 nAChR %Inhibition, 100 µM compound co-applied with 30 µM ACh) was 97%.
For `Cc1nnc2ncc(-c3ccc(C(C)N(C)C)cc3)cn12` (centres unmarked) [Ýmir-2 (7), N,N-dimethyl-1-(4-(3-methyl-[1,2,4]triazolo[4,3-a]pyrimidin-6-yl)phenyl)ethan-1-amine], the inhibition at 200 µM [1] was 98.4%, the IC50 [1, 7] was 2.58 µM and the “α7 nAChR %Activation” value [2, 5] was 7.0% and 7.0 ± 0.9%. It also gave an activation at 200 µM [2] of 7 ± 0.9%.
Compound `C[C@H]1CCCN(Cc2ccc(NC(=O)CCc3ccc(C#N)cc3)cc2)C1` [Compound 20] has an inhibition at 200 µM [1] of 86%, an IC50 [1, 7] of 33.5 µM and an activation at 200 µM [2, 5] of 0.3%. The inhibition at 100 µM [3, 6] was 94.3%.
`CC(=O)c1cccc(NC(=O)c2ccc(CN3CCCCCC3)cc2)c1` [Compound 18] showed an inhibition at 200 µM [1] of 91.6%, an IC50 [1, 7] of 17.9 µM and an activation at 200 µM [2, 5] of 0.7%. For the same compound, the inhibition at 100 µM [3, 6] was 68.7%.
For `O=C(Nc1ccc(CN2CCCCC2)cc1)c1ccc(Cl)cc1` [Compound 11], the “AChE %Inhibition of supernatant (MeOH)” value [1] was 100%, the activation at 200 µM [2, 5] was 0.7% and the inhibition at 100 µM [3, 6] was 73.3%.
`CN(C)Cc1ccc(-c2ccc(N(C)C)nc2)nc1` [Compound 6] gave an inhibition at 200 µM [1] of 76.1%, an IC50 [1, 7] of 58.5 µM and an activation at 200 µM [2, 5] of 0.4%. For the same compound, the inhibition at 100 µM [3, 6] was 47.2%.
In the case of `CN(C(=O)Cc1ccsc1)[C@H]1CCC[C@H](N2CCCC2)[C@H]1O` [Compound 17], the inhibition at 200 µM [1] is reported as 22.9%.
In the case of `c1cc(-c2ccc(-c3ccc(CN4CCCC4)cn3)cc2)n[nH]1` [Compound 8], the “AChE %Inhibition of supernatant (MeOH)” value [1] is reported as 100%, the activation at 200 µM [2, 5] is reported as 0.3% and the inhibition at 100 µM [3, 6] is reported as 59%.
Work on `Cc1cc(F)ccc1S(=O)(=O)NCc1ccc(CN2CCCC2)cc1` [Ýmir-14 (19)] yielded an inhibition at 200 µM [1] of 100%, an IC50 [1, 7] of 1.32 µM and an activation at 200 µM [2, 5] of 0.7%. The inhibition at 100 µM [3, 6] was 96%.
Compound `CC(=O)c1cccc(NC(=O)c2ccc(CN3CCCCC3)cc2)c1` [Compound 14] has an inhibition at 200 µM [1] of 100%, an IC50 [1, 7] of 1.1 µM and an activation at 200 µM [2, 5] of 0.3%. The inhibition at 100 µM [3, 6] was 60%.
In the case of `O=C(Nc1cccc(CN2CCCC2)c1)C1=Cc2cc(Cl)ccc2OC1` [Compound 16], the “AChE %Inhibition of supernatant (MeOH)” value [1] is reported as 100%, the activation at 200 µM [2, 5] is reported as 1% and the inhibition at 100 µM [3, 6] is reported as 90.7%.
For `Nc1nc(-c2ccsc2)cc(N(Cc2ccccn2)Cc2ccccn2)n1` [Compound 44, N4,N4-bis[(pyridin-2-yl)methyl]-6-(thiophen-3-yl)pyrimidine-2,4-diamine], the α7-pEC50 [4] is listed as 6.3.
